MIC data for 50 compounds are collected here from PubChem BioAssay AID691 (PCMD, 2007).

Converted amounts (≈) assume the structure as drawn. Records with an inconclusive call do not appear. The source made the active and inactive calls. How the calls were made is not given here. A value given as a limit tells only on which side of the number the result lay.

The experiment has as its system Zebrafish larvae lipid metabolism, fluorescent lipid gallbladder/intestine. The experiment in a line: larval zebrafish lipid processing modulation – whole organism, confirmation, fluorescent lipid, gallbladder/intestine, dose response (AID 691).
For the compound `CS(=O)(=O)Nc1ccc([N+](=O)[O-])cc1Oc1ccccc1`, the MIC was > 100 µM (inactive). As to `COc1ccc(OC)c(Nc2nc(-c3cccs3)cs2)c1`, the MIC was 56.2 µM (≈ 17.9 µg/mL). On to `COC(=O)c1cc(Br)c(=O)n(CCc2ccc(F)cc2)c1`, for which the MIC is > 100 µM (inactive). Regarding `CC1(c2cnc(Nc3ccccc3)s2)CCC(=O)O1` (stereo not given), the MIC was > 100 µM (inactive).

Take `CNc1ccccc1-c1nc2ccccc2n(C)c1=O`: the minimum inhibitory concentration (MIC) is 15.6 µM (≈ 4.15 µg/mL). For the compound `Cc1cccc2c1NC(C)CC2C` (stereo not given), the MIC is > 100 µM (inactive). Turning to `COC(=O)c1ccc(Cn2nnc3c(sc4nc(N5CCOCC5)c5c(c43)CCCC5)c2=O)o1`, the MIC is > 100 µM (inactive). With `c1ccc(-c2nnc3sc(Cc4cccs4)nn23)cc1` the figure was 18.8 µM (≈ 5.59 µg/mL); with `CCN1CC2=C(OC(N)=C(C#N)C2c2ccccc2)/C(=C\c2ccccc2)C1` (stereo not given), > 100 µM (inactive). As for `COC(=O)C1=C(N)Oc2cc(C)oc(=O)c2C1c1ccncc1` (stereo not given), the MIC is > 100 µM (inactive).

On to `COC(=O)c1sccc1NC(=O)c1ccco1`, for which the MIC is > 100 µM (inactive).

As to `CCOC(=O)C1CCCN(c2nc3ccccc3nc2C(C#N)C(=O)OCCOC)C1` (stereo not given), the MIC is > 100 µM (inactive). Take `Cc1nnc(NC(=O)C2CCCO2)s1` (stereo not given): the MIC was > 100 µM (inactive). With `Cc1ccc(CNC(=O)c2cc3c(=O)n4ccccc4nc3n(Cc3ccco3)c2=N)cc1`, the MIC was 62.5 µM (≈ 27.5 µg/mL). `Cc1c(N=Cc2c(O)n(C3CCCCC3)c(=O)[nH]c2=O)c(=O)n(-c2ccccc2)n1C`: the MIC is > 100 µM (inactive). With `Cc1csc(NC(=O)Nc2cccc(Cl)c2)n1` the figure was > 100 µM (inactive). Turning to `CC1Oc2ccccc2N(CC(=O)NCc2cccs2)C1=O` (stereo not given), the MIC is > 100 µM (inactive).

With `CC1(C)Cc2c(C#N)c(NCc3ccco3)nc(-c3ccco3)c2CO1`, the MIC was > 100 µM (inactive).

Consider `Cc1ccc2nc(C3CCN(CC(=O)N4CCCCCC4)CC3)[nH]c2c1`, for which the MIC was > 100 µM (inactive). Next, `OCCN1CCN(CCCN2c3ccccc3Sc3ccc(C(F)(F)F)cc32)CC1`: > 100 µM (inactive); `N#CCSc1nc2c(c(=O)n1Cc1ccco1)C1(CCCC1)Cc1ccccc1-2`: 25 µM (≈ 10.1 µg/mL). Consider `Cn1c(C(=O)OC(C(=O)NC2CCCC2)c2cccnc2)cc2sccc21` (stereo not given), for which the MIC was > 100 µM (inactive). For the compound `CN(C)[C@@H]1C(=O)C(C(N)=O)=C(O)[C@@]2(O)C(=O)C3=C(O)c4c(O)ccc(Cl)c4[C@@H](O)[C@H]3C[C@@H]12`, the MIC is > 100 µM (inactive).

With `N#Cc1ccc(CSc2nnc(-c3ccccn3)n2-c2ccccc2)cc1`, the MIC is > 100 µM (inactive).

Consider `c1coc(-c2nnc3sc(-c4cccs4)nn23)c1`, for which the MIC was 9.37 µM (≈ 2.57 µg/mL). For `COc1ccccc1-c1nnc2sc(C3CCCCC3)nn12`, the MIC is > 100 µM (inactive).

With `CCOC(=O)CSc1nnc2n(Cc3ccccc3)c(=O)c3c4c(sc3n12)CCC4`, the MIC was > 100 µM (inactive). On to `CCN(CC)C(=O)c1sc2nc(-c3cccs3)cc(-c3cccs3)c2c1N`, for which the MIC was 12.5 µM (≈ 5.17 µg/mL). Next, `COc1ccc2c(c1)c(C(=O)CN1CCOCC1)c(C)n2C`: > 100 µM (inactive); `CCCC1CC(=O)OC1(C)C(=O)CSc1n[nH]c(-c2ccccc2)n1` (stereo not given): > 100 µM (inactive); `c1ccc(CN2CCN(c3ncnc4c3[nH]c3ccccc34)CC2)cc1`: 31.3 µM (≈ 10.7 µg/mL).

With `CC(C)N=c1cc2n(-c3ccc(Cl)cc3)c3ccccc3nc-2cc1Nc1ccc(Cl)cc1`, the minimal inhibitory concentration (MIC) was 6.25 µM (≈ 2.96 µg/mL). Next, `CCNC(=O)c1cc2c(=O)n3cccc(C)c3nc2n(CCc2ccccc2)c1=N`: > 100 µM (inactive).

For the compound `CCOC(=O)CCc1c(C)c(C#N)c2[nH]c3ccccc3n2c1=O`, the MIC is > 100 µM (inactive). Regarding `O=C1c2ccccc2-c2onc3ccc(NCc4ccco4)c1c23`, the minimal inhibitory concentration (MIC) was 3.91 µM (≈ 1.24 µg/mL). In the case of `CCCCOc1ccccc1C(=O)NCCCC(=O)O`, the MIC was > 100 µM (inactive). With `COCCCN1C(=O)C(O)=C(C(C)=O)C1c1ccccn1` (stereo not given) the figure was > 100 µM (inactive); with `CCOC(=O)CSc1nc(N)c(C(=O)Nc2ccc(N(C)C)cc2)s1`, 25 µM (≈ 9.51 µg/mL). Consider `C=CCn1c(N)c(C(=O)Nc2ccccc2)c2nc3ccccc3nc21`, for which the MIC was > 100 µM (inactive). On to `CNc1oc(-c2ccccc2Cl)nc1C#N`, for which the MIC was > 100 µM (inactive). With `COc1ccc(C)cc1-n1nnnc1SC/C(O)=C(\C#N)c1nc2ccccc2[nH]1`, the MIC is > 100 µM (inactive). Consider `Clc1ccc(OCc2nnc(SCCN3CCCCC3)n2Cc2ccco2)cc1`, for which the MIC was 75 µM (≈ 32.5 µg/mL).

For `CC(=O)Nc1nnc(S(N)(=O)=O)s1`, the MIC is > 100 µM (inactive). On to `Cc1ccc2[nH]c3c(c2c1)CN(C(=O)CN1CCCc2ccccc21)CC3`, for which the MIC was > 100 µM (inactive). Regarding `N#Cc1c(NCCN)nc(NCc2ccccc2)c2c1CCN(Cc1ccccc1)C2`, the MIC was > 100 µM (inactive). With `COc1cccc(-c2nnc3sc(-c4ccco4)nn23)c1` the figure was > 100 µM (inactive); with `N#CC1=C(SCC(=O)c2ccc(Cl)cc2)NC2=C(C(=O)CCC2)C1c1ccco1` (stereo not given), > 100 µM (inactive). With `CCN(CC)c1ccc(C2Nc3cccc4cccc(c34)N2)c(O)c1`, the MIC was > 100 µM (inactive).

Take `COc1ccc(C2CC(C(F)(F)F)n3ncc(C(=O)Nc4cccc(O)c4)c3N2)cc1OC` (stereo not given): the MIC was > 100 µM (inactive). Regarding `Cc1c(N=Cc2c(O)n(CCc3ccc(F)cc3)c(=O)[nH]c2=O)c(=O)n(-c2ccccc2)n1C`, the MIC is > 100 µM (inactive).

Broadly, the MIC is the smallest concentration in the dilution series that meets the test's criterion for growth inhibition.
